Consider two compounds from article PMC10482691, “LTP induction by structural rather than enzymatic functions of CaMKII” (Nature, 2023).

Assay [1] has as its system GFP–paCaMKII F89G in hippocampal neurons. Kind of assay: paCaMKII F89G photoactivation: dendritic spine growth (sLTP). It counts as cell-based.
For assay [2], the system named is GFP–paCaMKII T286A in hippocampal neurons. In words: paCaMKII T286A photoactivation: dendritic spine growth (sLTP). The assay is classed as cell-based.

Where “and” joins values, the source holds several entries; their conditions need not be identical. Identical values can stand only once.

In the case of `CC(C)(C)n1nc(Cc2cccc3ccccc23)c2c(N)ncnc21` [NM-PP1], in assay [1] (NM-PP1 10 μM), the “spine growth after photoactivation of paCaMKII F89G” value was “spine growth”. Moreover, the “dendritic spine growth after photoactivation (sheet 6f)” value in assay [1] (paCaMKII F89G + NMPP1, individual neurons) was 172.556 and 35.7596 and 20.47 and 19.9369 and 44.1548 and -7.983 and 10.7769 and 28.3493 and 0.9564 and -9.357 and -3.692 and 75.8167 and 167.851 and -2.441 and -1.61 and -17.673 and 155.504 and 81.1061.

For the compound `NCCNc1cccc(-c2ccnc3[nH]c4ccccc4c23)c1` [AS283], the “spine growth after photoactivation of paCaMKII T286A” value in assay [2] (AS283 10 μM) is “spine growth”. Further, in assay [2] (paCaMKII T286A + AS283, individual neurons), the “dendritic spine growth after photoactivation (sheet 6c)” value is 17.1219 and 31.801 and 10.2332 and 47.3616 and 15.5579 and 21.0974 and 9.7214 and 4.0121 and 26.179.
